Residues, ends and D or L forms follow the SMILES beside them.
Experiments:
[1] = reference compound; cited from earlier work
[2] = reference compound; cited from earlier work; remark: listed apart in the source
Caco-2 cell permeability = assay type: in vitro ADME
[3] = Stability in rat liver microsomes; assay type: in vitro ADME
[4] = Stability in simulated gastric fluid; assay type: in vitro ADME; details: pH 1.6
[5] = Stability in simulated intestinal fluid; assay type: in vitro ADME; details: pH 6.5
[6] = LogD7.4 by miniaturized shake-flask procedure; assay type: physicochemical; details: miniaturized shake-flask procedure at pH 7.4
[7] = Stability in human plasma; assay type: in vitro ADME

For `CC(C)[N+](C)(CCOC(=O)C1c2ccccc2Oc2ccccc21)C(C)C` [propantheline], the “Human plasma stability (t1/2)” value [1] is given as 2.6 min.

In the case of `CC[C@H]1OC(=O)[C@H](C)[C@@H](O[C@H]2C[C@@](C)(OC)[C@@H](O)[C@H](C)O2)[C@H](C)[C@@H](O[C@@H]2O[C@H](C)C[C@H](N(C)C)[C@H]2O)[C@](C)(O)C[C@@H](C)C(=O)[C@H](C)[C@@H](O)[C@]1(C)O` [erythromycin], the “Stability in intestinal simulated fluids (t1/2)” value [2] is given as 7.55 h.

For `N=C(N)NCCC[C@@H]1NC(=O)CNC(=O)CNC(=O)[C@H](Cc2c[nH]cn2)NC(=O)CNC(=O)CNC(=O)[C@H](Cc2c[nH]c3ccccc23)NC(=O)[C@H](Cc2c[nH]c3ccccc23)NC(=O)CNC(=O)[C@H](CCCCN)NC(=O)CNC(=O)[C@H](CO)NC(=O)CNC(=O)CNC(=O)[C@H](Cc2c[nH]c3ccccc23)NC1=O` [SP4] (cyclo(GGHGGRWGGSGKGWW)), the Papp A→B (Caco-2 cell permeability) was 1.78 ×10⁻⁶ cm/s, the Papp B→A (Caco-2 cell permeability) was 2.15 ×10⁻⁶ cm/s and the efflux ratio (Caco-2 cell permeability) was about 1.2. The half-life [3] was 4.7 h, the half-life [4] was 1.8 h and the half-life [5] was 7.6 h. For the same compound, the LogD7.4 [6] was 0.86 and the remaining at 1 h [7] was 89.4%.

Source: paper doi:10.1101/2025.10.26.684696v1 (bioRxiv, 2025)
